Measurements from ChEMBL document CHEMBL3351824, “Synthesis and biological evaluation of novel tacrine derivatives and tacrine-coumarin hybrids as cholinesterase inhibitors” (J Med Chem, 2014).

These molecules were tested against Cholinesterase (Homo sapiens, UniProt P06276).
Sequence of Cholinesterase (P06276 whole entry): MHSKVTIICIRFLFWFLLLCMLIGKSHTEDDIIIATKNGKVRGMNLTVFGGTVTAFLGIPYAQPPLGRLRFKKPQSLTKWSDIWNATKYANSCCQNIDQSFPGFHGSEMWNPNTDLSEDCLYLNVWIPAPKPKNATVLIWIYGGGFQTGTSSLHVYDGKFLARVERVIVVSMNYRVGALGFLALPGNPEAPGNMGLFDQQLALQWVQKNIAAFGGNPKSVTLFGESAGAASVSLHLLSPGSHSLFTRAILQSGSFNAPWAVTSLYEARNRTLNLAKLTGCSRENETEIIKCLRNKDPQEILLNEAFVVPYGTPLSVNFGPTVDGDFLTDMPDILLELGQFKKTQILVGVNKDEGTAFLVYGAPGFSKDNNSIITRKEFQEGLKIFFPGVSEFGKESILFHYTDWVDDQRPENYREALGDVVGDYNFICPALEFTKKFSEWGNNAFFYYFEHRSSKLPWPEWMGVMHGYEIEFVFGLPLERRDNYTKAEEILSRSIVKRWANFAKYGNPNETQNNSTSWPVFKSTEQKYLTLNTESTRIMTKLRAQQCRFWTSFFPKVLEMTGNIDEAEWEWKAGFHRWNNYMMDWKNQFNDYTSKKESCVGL
Description: Inhibition of human BuChE pre-incubated for 5 mins before butylthiocholine substrate addition by Ellman's method

Point of comparison: `O=C(Cc1cc(=O)oc2cc(O)ccc12)NCCCNc1c2c(nc3ccccc13)CCCC2`, IC50 0.827 µM. Against it:
- CCN(CCC(=O)NCCNc1c2c(nc3ccccc13)CCCC2)C1CCCCC1 — within 1.5-fold, 0.765 µM
- CCN(CCC(=O)NCCCNc1c2c(nc3ccccc13)CCCC2)C1CCCCC1 — 3.1-fold lower, 0.267 µM
- CCN(CCC(=O)NCCCCNc1c2c(nc3ccccc13)CCCC2)C1CCCCC1 — 3.6-fold lower, 0.228 µM
- CN(CCC(=O)NCCNc1c2c(nc3ccccc13)CCCC2)C1CCCCC1 — 2.5-fold higher, 2.03 µM
- CN(CCC(=O)NCCCNc1c2c(nc3ccccc13)CCCC2)C1CCCCC1 — 2.9-fold higher, 2.38 µM
- CN(CCC(=O)NCCCCNc1c2c(nc3ccccc13)CCCC2)C1CCCCC1 — 2.7-fold higher, 2.23 µM
- O=C(Cc1cc(=O)oc2cc(O)ccc12)NCCNc1c2c(nc3ccccc13)CCCC2 — 15-fold higher, 12.6 µM
- O=C(Cc1cc(=O)oc2cc(O)ccc12)NCCCCNc1c2c(nc3ccccc13)CCCC2 — 2.5-fold lower, 0.328 µM
- O=C(Cc1cc(=O)oc2cc(O)ccc12)NNC(=S)Nc1c2c(nc3ccccc13)CCCC2 — 1.7-fold higher, 1.42 µM
- O=C(Cc1cc(=O)oc2cc(O)ccc12)N/N=C1\SCC(=O)N1c1c2c(nc3ccccc13)CCCC2 — 6.8-fold higher, 5.62 µM

These molecules were tested against T1, Acetylcholinesterase (Homo sapiens, UniProt P22303).
T1 sequence (P22303 whole entry): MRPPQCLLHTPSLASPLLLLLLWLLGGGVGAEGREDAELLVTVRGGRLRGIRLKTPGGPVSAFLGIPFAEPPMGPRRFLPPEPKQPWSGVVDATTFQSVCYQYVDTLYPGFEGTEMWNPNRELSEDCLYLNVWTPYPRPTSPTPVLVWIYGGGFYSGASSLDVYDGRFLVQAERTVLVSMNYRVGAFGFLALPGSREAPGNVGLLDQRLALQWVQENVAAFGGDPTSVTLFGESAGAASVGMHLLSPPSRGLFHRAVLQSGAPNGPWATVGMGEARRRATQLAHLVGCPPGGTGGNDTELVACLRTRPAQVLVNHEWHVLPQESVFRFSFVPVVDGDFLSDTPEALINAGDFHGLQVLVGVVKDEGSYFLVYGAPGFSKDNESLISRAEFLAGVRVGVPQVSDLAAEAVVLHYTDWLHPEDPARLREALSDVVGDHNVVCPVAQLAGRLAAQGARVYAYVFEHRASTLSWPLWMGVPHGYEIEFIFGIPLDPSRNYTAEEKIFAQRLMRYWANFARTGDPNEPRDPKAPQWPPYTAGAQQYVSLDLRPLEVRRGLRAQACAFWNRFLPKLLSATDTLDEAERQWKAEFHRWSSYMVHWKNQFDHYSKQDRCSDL
Description: Inhibition of human recombinant AChE pre-incubated for 5 mins before acetylthiocholine substrate addition by Ellman's method

Point of comparison: `CN(CCC(=O)NCCNc1c2c(nc3ccccc13)CCCC2)C1CCCCC1`, IC50 0.58 µM. Against it:
- CCN(CCC(=O)NCCNc1c2c(nc3ccccc13)CCCC2)C1CCCCC1 — 2.5-fold lower, 0.233 µM
- CCN(CCC(=O)NCCCNc1c2c(nc3ccccc13)CCCC2)C1CCCCC1 — 22-fold lower, 0.0263 µM
- CCN(CCC(=O)NCCCCNc1c2c(nc3ccccc13)CCCC2)C1CCCCC1 — 6.2-fold lower, 0.0942 µM
- CN(CCC(=O)NCCCNc1c2c(nc3ccccc13)CCCC2)C1CCCCC1 — within 1.5-fold, 0.398 µM
- CN(CCC(=O)NCCCCNc1c2c(nc3ccccc13)CCCC2)C1CCCCC1 — 5.6-fold lower, 0.104 µM
- O=C(Cc1cc(=O)oc2cc(O)ccc12)NCCNc1c2c(nc3ccccc13)CCCC2 — 5-fold higher, 2.91 µM
- O=C(Cc1cc(=O)oc2cc(O)ccc12)NCCCNc1c2c(nc3ccccc13)CCCC2 — 2.1-fold lower, 0.277 µM
- O=C(Cc1cc(=O)oc2cc(O)ccc12)NCCCCNc1c2c(nc3ccccc13)CCCC2 — 38-fold lower, 0.0154 µM
- O=C(Cc1cc(=O)oc2cc(O)ccc12)NNC(=S)Nc1c2c(nc3ccccc13)CCCC2 — 14-fold higher, 8.17 µM
- O=C(Cc1cc(=O)oc2cc(O)ccc12)N/N=C1\SCC(=O)N1c1c2c(nc3ccccc13)CCCC2 — 27-fold higher, 15.7 µM

Target: T1, Acetylcholinesterase
Remark: another data set of the same source
Description: Inhibition of human recombinant AChE assessed as dissociation constant for enzyme-inhibitor complex by Lineweaver-Burk plot

Point of comparison: `O=C(Cc1cc(=O)oc2cc(O)ccc12)N/N=C1\SCC(=O)N1c1c2c(nc3ccccc13)CCCC2`, Ki 2.36 µM. Against it:
- CCN(CCC(=O)NCCCNc1c2c(nc3ccccc13)CCCC2)C1CCCCC1 — 29-fold lower, 0.0804 µM
- CCN(CCC(=O)NCCCCNc1c2c(nc3ccccc13)CCCC2)C1CCCCC1 — 12-fold lower, 0.199 µM
- O=C(Cc1cc(=O)oc2cc(O)ccc12)NCCCCNc1c2c(nc3ccccc13)CCCC2 — 580-fold lower, 0.0041 µM
- O=C(Cc1cc(=O)oc2cc(O)ccc12)NNC(=S)Nc1c2c(nc3ccccc13)CCCC2 — within 1.5-fold, 1.94 µM

Target: T1, Acetylcholinesterase
Remark: another data set of the same source
Description: Inhibition of human recombinant AChE assessed as dissociation constant for enzyme-inhibitor-substrate complex by Lineweaver-Burk plot

Point of comparison: `O=C(Cc1cc(=O)oc2cc(O)ccc12)N/N=C1\SCC(=O)N1c1c2c(nc3ccccc13)CCCC2`, Ki 65.3 µM. Against it:
- CCN(CCC(=O)NCCCNc1c2c(nc3ccccc13)CCCC2)C1CCCCC1 — 830-fold lower, 0.0789 µM
- CCN(CCC(=O)NCCCCNc1c2c(nc3ccccc13)CCCC2)C1CCCCC1 — 200-fold lower, 0.328 µM
- O=C(Cc1cc(=O)oc2cc(O)ccc12)NCCCCNc1c2c(nc3ccccc13)CCCC2 — 2800-fold lower, 0.0234 µM
- O=C(Cc1cc(=O)oc2cc(O)ccc12)NNC(=S)Nc1c2c(nc3ccccc13)CCCC2 — within 1.5-fold, 92.8 µM
